Assay results published in publication PMC5343580, “Antimicrobial peptide cWFW kills by combining lipid phase separation with autolysis” (Scientific Reports, 2017).
Converted amounts (≈) assume the structure as drawn. Peptide text beside a SMILES is read from it.

Tests used:
[1] = test system: B. subtilis KS19 (ΔlytABCDEF); assay: Cell lysis (optical density) in autolysin-deficient strain; type: cell-based, Bacillus subtilis; details: different concentrations, three replicate cultures
[2] = test system: B. subtilis 168; assay: Membrane potential measurement with DiSC3(5); type: cell-based, Bacillus subtilis
Procedure: Peptide-induced changes in membrane potential were measured using the voltage-sensitive fluorescent dye DiSC3(5). In aqueous solution DiSC3(5) emits strong fluorescence which is quenched upon accumulation in polarised cells. Upon depolarisation, DiSC3(5) is released from the cell resulting in an increased fluorescence due to de-quenching. B. subtilis 168 was grown at 37 °C to mid-log phase and diluted in LB medium to OD600 0.2. After centrifugation for 1 min at 16,500 rpm, the supernatant was removed and cells carefully resuspended in 1 ml fresh pre-warmed LB containing 0.1 mg/ml BSA. Subsequently, 140 μl aliquots of the cell suspension were transferred into a 96 well microtiter plate and allowed to settle. 10 μl of 15 μM DiSC3(5) in LB/15% DMSO were added to the wells to give a final DiSC3(5) concentration of 1 μM. Cellular accumulation (quenching) of DiSC3(5) was monitored until the signal had reached stable fluorescence levels. The peptides were added at desired concentrations at 5 μl/well, and the resulting changes in DiSC3(5) fluorescence were analysed for at least 20 min using a Fluostar Optima, BMG Labtech. Solutions, plates and instruments were warmed to 37 °C prior to use.

[3] = test system: human cells; details: cited from earlier work
Description: Antimicrobial peptides (AMPs) have been in the focus of research attention as a promising alternative for conventional antibiotics. The subclass of arginine- and tryptophan-rich peptides, with cationic charge and hydrophobic residues, provides the ideal structural prerequisite for interaction with the negatively charged bacterial membranes. To elucidate optimal structure-activity properties we screened a library of small synthetic peptides derived from the active motif of human antimicrobial peptide lactoferricin[3]. This analysis identified the cyclic hexapeptide cWFW (cyclo-RRRWFW) as ...

[4] = test system: B. subtilis 168; assay: Membrane fluidity in cells (laurdan GP); type: cell-based, Bacillus subtilis
Description: Membrane fluidity was investigated with the small hydrophobic fluorescent dye laurdan, which integrates into cellular membranes and detects changes related to the lipid packing of the surrounding bilayer. The resulting changes in the fluorescence emission spectrum can be detected either spectroscopically or with fluorescence microscopy. A mathematical quantification of the emission shift is achieved by calculation of the laurdan GP (generalised polarisation) with GP = (I435 − I490)⁄(I435 + I490).
B. subtilis 168 cells were grown to OD600 ~ 0.5 in LB/0.1% glucose and incubated with 10 μM laurdan for 5 min, shaking in the dark. […] The supernatant removed from the cells after the last washing step served as background for laurdan fluorescence not associated with cells. […] All samples were shaken briefly before fluorescence detection at 435 ± 5 nm and 490 ± 5 nm (upon excitation at 350 ± 10 nm) on a plate reader (Fluostar Optima, BMG Labtech). Laurdan fluorescence was monitored for at least 20 min. […] Laurdan fluorescence in liposomes was recorded using an LS 50B spectrofluorometer (Perkin-Elmer Corp., Germany). […] Laurdan fluorescence was detected separately at 435 and 500 nm, respectively. The average of three measurements for each preparation was calculated to determine corresponding laurdan GP values. […]

[5] = test system: B. subtilis 168/DSM402; type: cell-based, Bacillus subtilis
Procedure: (§1) B. subtilis 168/DSM402 was grown in chemically defined Belitzky minimal medium (BMM)[61]. Cultures were incubated at 37 °C under steady agitation. Minimal inhibitory concentrations (MIC) were determined as described previously. In growth experiments, exponentially growing cultures were exposed to a concentration range of peptide (Supplementary Figure 1)[62]. For physiological stress experiments, concentrations were chosen that led to 50% reduction of the growth rate. For proteomic profiling, as well as for all follow up experiments performed under the same growth conditions, 8 μM cWFW were used.

[6] = test system: B. subtilis 168/DSM 402; assay: Ion analysis (ICP-OES); type: cell-based, Bacillus subtilis; details: 15 min incubation with 8 μM, BMM, three independent measurements
Procedure: Only metal-free plastic ware and ultrapure water (Bernd Kraft) were used. All centrifugation steps were reduced to 2 min to reduce sample handling time. Cultures were adjusted to OD500 = 0.4 prior to antibiotic exposure to ensure equal cell count in each sample. Samples were prepared as described by Wenzel et al.[13]. Briefly, B. subtilis 168/DSM402 was grown in BMM until early exponential growth phase. For determination of ion concentrations, subcultures were incubated with 8 μM cWFW for 15 min, followed by cell harvest by centrifugation, washed twice in TE buffer (100 mM Tris-HCl, 1 mM EDTA, pH 7.5) and once in the same buffer without EDTA. The obtained cell pellets were digested in 65% nitric acid (Bernd Kraft) at 80 °C for 16 h. Prior to element analysis, samples were diluted with ultrapure water to a final nitric acid concentration of 10%. Element concentrations were determined by inductively-coupled plasma atomic emission spectroscopy using an iCAP* 6300 Duo View ICP Spectrometer (Thermo Fisher Scientific) as described before. […] Element concentrations were converted into intracellular ion concentrations based on the B. subtilis cellular volume, which was taken as 3 × 10^–9 μl based on average rod size determined by cryo-electron microscopy images by Matias and Beveridge[64][65].

[7] = test system: B. subtilis HB5343; type: cell-based, Bacillus subtilis; details: psd::ery (PE-deficient), determined in LB
Procedure: (§2) Cells were inoculated from an overnight culture 1:100 and grown to mid-log phase (OD600 = 0.2–0.4). Unless stated otherwise, all experiments were carried out in LB medium at 37 °C. Cell numbers were determined using a Petroff-Hausser counting chamber: OD600 = 1 corresponds to 8.8 × 10^7 CFU/ml B. subtilis. Further information on strains, conditions of gene induction, and minimal inhibitory concentration are listed in Supplementary Table 4.
(§3) The minimal inhibitory concentration (MIC), which is defined as the lowest concentration able to inhibit growth of a microorganism in vitro[59], was analysed as described before. Briefly, bacteria were grown to mid-log phase and diluted in growth medium to give a final cell number of 5 × 10^5 cells/well in 96 well microtiter plates. A microdilution technique was applied where small volumes of peptide solutions were added in a serial dilution ranging from 100 to 0.05 μM. Cells were cultivated for 18 hours, 37 °C, 180 rpm, followed by photometrical detection of the optical density using a microplate reader (Tecan). Peptide concentrations were tested in triplicates in three independent experiments.

[8] = test system: B. subtilis 168; type: cell-based, Bacillus subtilis; details: 168, 18 h
Procedure: as §2, §3

[9] = test system: B. subtilis SDB206; type: cell-based, Bacillus subtilis; details: ywiE::neo clsB::spc clsA::ery (CL-deficient), determined in LB
Procedure: as §2, §3

[10] = test system: B. subtilis 168/DSM 402; assay: Cytosolic proteome response profile (radioactive pulse-labelling, 2D-PAGE); type: cell-based, Bacillus subtilis; details: 8 μM cWFW, BMM
Procedure: To identify which cellular processes are disturbed by cWFW, we performed proteomic profiling of the Gram-positive model organism B. subtilis (Fig. 1). This technique combines radioactive pulse-labeling of newly synthesised proteins with two-dimensional SDS PAGE, thus providing insight into the acute antibiotic stress response.
as §1
Radioactive labelling of newly synthesised proteins and subsequent separation of the cytosolic proteome by two-dimensional polyacrylamide gel electrophoresis (2D-PAGE) was performed as previously described. Analytical gel images were analysed as described by Raatschen & Bandow[63] using Decodon Delta 2D 4.1 image analysis software. […] Protein spots were identified by MALDI-ToF/ToF or nanoUPLC-ESI-MS/MS using a Synapt G2-S HDMS mass spectrometer equipped with a lock spray source for electrospray ionisation and a ToF detector (Waters) as previously reported (Supplementary Tables 2 and 3)[62].

[11] = test system: B. subtilis 168; assay: ATP measurement (luciferase-based luminescence); type: cell-based, Bacillus subtilis; details: 20 min incubation with 4, 8, and 12 μM; p ≥ 0.05; three independent replicates
Procedure: For the determination of cellular ATP levels samples were incubated with increasing concentration of cWFW for 20 min, followed by flash-freeze in liquid N2 in order to stop metabolism. Cell lysis and measurement of cell ATP levels were carried out using ATP bioluminescence Assay Kit HSII (Roche Applied Science) following manufacturer’s instructions using a BMG Fluostar Optima luminometer. The measured luminescence was calibrated with a serial dilution of ATP and triplicate samples were equalised against the optical density of the corresponding cell suspensions.

With `N=C(N)NCCC[C@@H]1NC(=O)[C@H](CCCNC(=N)N)NC(=O)[C@H](Cc2c[nH]c3ccccc23)NC(=O)[C@H](Cc2ccccc2)NC(=O)[C@H](Cc2c[nH]c3ccccc23)NC(=O)[C@H](CCCNC(=N)N)NC1=O` [cWFW, cyclo(RRRWFW)] (cyclo(FWRRRW)) the “lysis triggered by cWFW in the absence of major autolysins LytCDEF” value [1] was “fully abolished”, the “membrane depolarisation (DiSC3(5) fluorescence)” value ([2]; growth-inhibitory concentrations (8 μM) and above, LB, 37 °C, three independent replicates) was “very low compared to that of the positive control KLA-1” and the “time until membrane potential was restored almost to control levels” value ([2]; growth-inhibitory concentrations (8–12 μM)) was ≤ 10 min. For the same compound, the “toxicity towards human cells” value [3] was “not toxic towards human cells”, the “time until reduction of membrane fluidity reaches a steady state” value ([4]; 6 μM, time-resolved laurdan GP) was ≤ 2 min and the “change of laurdan generalised polarisation (GP) in cells” value ([4]; 10 min incubation with increasing concentrations, high GP = low membrane fluidity, three replicates) was “clear concentration-dependent increase in laurdan generalised polarisation (GP)”. The MIC [5] was 8 µM (≈ 7.91 µg/mL), the “change in cellular K+ content” value [6] was “accumulation of K^+” and the “leakage of cellular ions” value [6] was “no leakage of cellular ions was observed”. It also gave an MIC [7] of 6 µM (≈ 5.93 µg/mL), an MIC [8] of 6 µM (≈ 5.93 µg/mL) and an MIC [9] of 6 µM (≈ 5.93 µg/mL). For the same compound, the “induction factor of protein AcsA” value [10] was 3.7, the “induction factor of protein CitZ” value [10] was 3.5 and the “induction factor of protein ClpC” value [10] was 5.4. The “induction factor of protein ClpP” value [10] was 4.8, the “induction factor of protein DltA” value [10] was 4.2 and the “induction factor of protein Dps” value [10] was 5.2. For the same compound, the “induction factor of protein FbaA” value [10] was 2.9, the “induction factor of protein FosB” value [10] was 8.3 and the “induction factor of protein GroEL” value [10] was 3.9. The “induction factor of protein GsiB” value [10] was 8.4, the “induction factor of protein GtaB” value [10] was 3.2 and the “induction factor of protein IspH” value [10] was 19.0. For the same compound, the “induction factor of protein LiaH” value [10] was 16.6, the “induction factor of protein LuxS” value [10] was 3.4 and the “induction factor of protein MinD” value [10] was 3.1. For the same compound, the “induction factor of protein NadE” value [10] was 11.0, the “induction factor of protein NfrA” value [10] was 5.7 and the “induction factor of protein OhrB” value [10] was 4.4. For the same compound, the “induction factor of protein PepF” value [10] was 3.6, the “induction factor of protein PspA” value [10] was 9.5 and the “induction factor of protein PurH” value [10] was 3.4. For the same compound, the “induction factor of protein RacX” value [10] was 12.0, the “induction factor of protein SalA” value [10] was 3.5 and the “induction factor of protein SodA” value [10] was 3.0. For the same compound, the “induction factor of protein SpoVG” value [10] was 2.4, the “induction factor of protein TpiA” value [10] was 5.8 and the “induction factor of protein Tpx” value [10] was 4.1. For the same compound, the “induction factor of protein YceC” value [10] was 9.9, the “induction factor of protein YdaG” value [10] was 5.6 and the “induction factor of protein YdbD” value [10] was 19.4. For the same compound, the “induction factor of protein YfhM” value [10] was 5.8, the “induction factor of protein YjdA” value [10] was 3.4 and the “induction factor of protein YkaA” value [10] was 4.6. The “induction factor of protein YoxD” value [10] was 7.1, the “induction factor of protein YpuA” value [10] was 4.0 and the “induction factor of protein YqiW” value [10] was 2.4. The “induction factor of protein YqkF” value [10] was 7.7, the “induction factor of protein YthP” value [10] was 5.9 and the “induction factor of protein YvlB” value [10] was 9.0. The “induction factor of protein YvyD” value [10] was 6.2, the “induction factor of protein YwjI” value [10] was 6.4 and the “induction factor of protein YwrO” value [10] was 4.3. For the same compound, the “change of ATP levels” value [11] was “No significant changes”.
